Calls of active or inactive are those of the source. The rule behind the calls is not given here. Numbered stars: 1 amine (or outer) side, 2 acyl side, 3 side chain; on linkers, the order of the positions; unused ones are H or OH. Bridge positions count the residues as written; N and C are the ends. Square brackets hold non-standard residues; d marks the D form. Peptide text beside a SMILES is read from it. * marks the point of attachment. hTyr(3S-OH,4S-OH,3'-OSO3H) = N[C@H](C(=O)O)[C@H](O)[C@@H](O)c1ccc(O)c(OS(=O)(=O)O)c1; Orn(4R-OH,5R-OH) = O=C([C@H](C[C@@H](O)[C@@H](O)N[*:3])N[*:1])[*:2]; Pro(3S-OH,4S-Me) = C[C@H]1CN[C@H](C(=O)O)[C@H]1O; X1 = CCCCCOc1ccc(-c2cc(-c3ccc(C(=O)*)cc3)no2)cc1; Gln(3R-OH) = NC(=O)C[C@@H](O)[C@H](N)C(=O)O; Hyp = O=C(O)[C@@H]1C[C@@H](O)CN1
Columns and labels:
Aspergillus fumigatus [1] = experiment: Antifungal activity against nongerminated Aspergillus fumigatus assessed as lowest drug concentration that produced short, stubby and highly branched hyphae after 48 hrs by microscopic analysis; format: functional; conditions: read-out: MEC
Aspergillus fumigatus [2] = experiment: Antifungal activity against germinated Aspergillus fumigatus assessed as lowest drug concentration that produced short, stubby and highly branched hyphae after 48 hrs by microscopic analysis; format: functional; conditions: read-out: MEC
Aspergillus fumigatus [3] = experiment: Ratio of log2 of MEC for germinated Aspergillus fumigatus to log2 of MEC for nongerminated Aspergillus fumigatus; format: functional
Aspergillus terreus [4] = experiment: Antifungal activity against nongerminated Aspergillus terreus assessed as lowest drug concentration that produced short, stubby and highly branched hyphae after 48 hrs by microscopic analysis; format: functional; conditions: read-out: MEC
Aspergillus terreus [5] = experiment: Antifungal activity against germinated Aspergillus terreus assessed as lowest drug concentration that produced short, stubby and highly branched hyphae after 48 hrs by microscopic analysis; format: functional; conditions: read-out: MEC
Aspergillus terreus [6] = experiment: Ratio of log2 of MEC for germinated Aspergillus terreus to log2 of MEC for nongerminated Aspergillus terreus; format: functional
Aspergillus flavus [7] = experiment: Antifungal activity against nongerminated Aspergillus flavus assessed as lowest drug concentration that produced short, stubby and highly branched hyphae after 48 hrs by microscopic analysis; format: functional; conditions: read-out: MEC
Aspergillus flavus [8] = experiment: Antifungal activity against germinated Aspergillus flavus assessed as lowest drug concentration that produced short, stubby and highly branched hyphae after 48 hrs by microscopic analysis; format: functional; conditions: read-out: MEC
Aspergillus flavus [9] = experiment: Ratio of log2 of MEC for germinated Aspergillus flavus to log2 of MEC for nongerminated Aspergillus flavus; format: functional
Aspergillus fumigatus [10] = experiment: Antifungal activity against nongerminated Aspergillus fumigatus assessed as short, stubby and highly branched hyphae after 48 hrs by microscopy analysis; format: functional, organism-based
Aspergillus fumigatus [11] = experiment: Effect on nongerminated Aspergillus fumigatus metabolic activity assessed as drug concentration at which fungal metabolic activity occurs after 2 hrs by XTT assay; format: functional
Aspergillus fumigatus [12] = experiment: Effect on germinated Aspergillus fumigatus metabolic activity assessed as drug concentration at which fungal metabolic activity occurs after 2 hrs by XTT assay; format: functional
Aspergillus fumigatus [13] = experiment: Effect on Aspergillus fumigatus metabolic activity assessed number of twofold drug dilutions required for germinated fungal metabolic activity to nongerminated fungal metabolic activity; format: functional
Aspergillus terreus [14] = experiment: Effect on nongerminated Aspergillus terreus metabolic activity assessed as drug concentration at which fungal metabolic activity occurs after 2 hrs by XTT assay; format: functional
Aspergillus terreus [15] = experiment: Effect on germinated Aspergillus terreus metabolic activity assessed as drug concentration at which fungal metabolic activity occurs after 2 hrs by XTT assay; format: functional
Aspergillus terreus [16] = experiment: Effect on Aspergillus terreus metabolic activity assessed number of twofold drug dilutions required for germinated fungal metabolic activity to nongerminated fungal metabolic activity; format: functional
Aspergillus flavus [17] = experiment: Effect on nongerminated Aspergillus flavus metabolic activity assessed as drug concentration at which fungal metabolic activity occurs after 2 hrs by XTT assay; format: functional
Aspergillus flavus [18] = experiment: Effect on germinated Aspergillus flavus metabolic activity assessed as drug concentration at which fungal metabolic activity occurs after 2 hrs by XTT assay; format: functional
Aspergillus flavus [19] = experiment: Effect on Aspergillus flavus metabolic activity assessed number of twofold drug dilutions required for germinated fungal metabolic activity to nongerminated fungal metabolic activity; format: functional
Aspergillus fumigatus [20] = experiment: Induction of maximal metabolic inhibition in nongerminated Aspergillus fumigatus assessed as minimal metabolic activity Ymin after 2 hrs by XTT assay; format: functional; set-up: scale not given: the % may be the effect or the level left
Aspergillus fumigatus [21] = experiment: Induction of maximal metabolic inhibition in germinated Aspergillus fumigatus assessed as minimal metabolic activity Ymin after 2 hrs by XTT assay; format: functional; set-up: scale not given: the % may be the effect or the level left
Aspergillus terreus [22] = experiment: Induction of maximal metabolic inhibition in nongerminated Aspergillus terreus assessed as minimal metabolic activity Ymin after 2 hrs by XTT assay; format: functional; set-up: scale not given: the % may be the effect or the level left
Aspergillus terreus [23] = experiment: Induction of maximal metabolic inhibition in germinated Aspergillus terreus assessed as minimal metabolic activity Ymin after 2 hrs by XTT assay; format: functional; set-up: scale not given: the % may be the effect or the level left
Aspergillus flavus [24] = experiment: Induction of maximal metabolic inhibition in nongerminated Aspergillus flavus assessed as minimal metabolic activity Ymin after 2 hrs by XTT assay; format: functional; set-up: scale not given: the % may be the effect or the level left
Aspergillus flavus [25] = experiment: Induction of maximal metabolic inhibition in germinated Aspergillus flavus assessed as minimal metabolic activity Ymin after 2 hrs by XTT assay; format: functional; set-up: scale not given: the % may be the effect or the level left
Aspergillus fumigatus [26] = experiment: Antifungal activity against nongerminated Aspergillus fumigatus assessed as absence of visual fungal growth at 128 ug/mL; format: functional, organism-based
Aspergillus fumigatus [27] = experiment: Antifungal activity against germinated Aspergillus fumigatus assessed as absence of visual fungal growth at 128 ug/mL; format: functional, organism-based
Aspergillus terreus [28] = experiment: Antifungal activity against nongerminated Aspergillus terreus assessed as absence of visual fungal growth at 128 ug/mL; format: functional, organism-based
Aspergillus terreus [29] = experiment: Antifungal activity against germinated Aspergillus terreus assessed as absence of visual fungal growth at 128 ug/mL; format: functional, organism-based
Aspergillus flavus [30] = experiment: Antifungal activity against nongerminated Aspergillus flavus assessed as absence of visual fungal growth at 128 ug/mL; format: functional, organism-based
Aspergillus flavus [31] = experiment: Antifungal activity against germinated Aspergillus flavus assessed as absence of visual fungal growth at 128 ug/mL; format: functional, organism-based
Aspergillus fumigatus [32] = experiment: Antifungal activity against nongerminated Aspergillus fumigatus assessed as absence of visual fungal growth at 64 ug/mL; format: functional, organism-based
Aspergillus fumigatus [33] = experiment: Antifungal activity against germinated Aspergillus fumigatus assessed as absence of visual fungal growth at 64 ug/mL; format: functional, organism-based
Aspergillus terreus [34] = experiment: Antifungal activity against nongerminated Aspergillus terreus assessed as absence of visual fungal growth at 64 ug/mL; format: functional, organism-based
Aspergillus terreus [35] = experiment: Antifungal activity against germinated Aspergillus terreus assessed as absence of visual fungal growth at 64 ug/mL; format: functional, organism-based
Aspergillus flavus [36] = experiment: Antifungal activity against nongerminated Aspergillus flavus assessed as absence of visual fungal growth at 64 ug/mL; format: functional, organism-based
Aspergillus flavus [37] = experiment: Antifungal activity against germinated Aspergillus flavus assessed as absence of visual fungal growth at 64 ug/mL; format: functional, organism-based

Compound: CCCCCOc1ccc(-c2cc(-c3ccc(C(=O)N[C@H]4C[C@@H](O)[C@@H](O)NC(=O)[C@@H]5[C@@H](O)[C@@H](C)CN5C(=O)[C@H]([C@H](O)CC(N)=O)NC(=O)[C@H]([C@H](O)[C@@H](O)c5ccc(O)c(OS(=O)(=O)O)c5)NC(=O)[C@@H]5C[C@@H](O)CN5C(=O)[C@H]([C@@H](C)O)NC4=O)cc3)no2)cc1 [MICAFUNGIN] (X1-[Orn(4R-OH,5R-OH)]T[Hyp][hTyr(3S-OH,4S-OH,3'-OSO3H)][Gln(3R-OH)][Pro(3S-OH,4S-Me)]; lactam 1-C)
- minimal effective concentration (Aspergillus fumigatus [1]): 0.06 µg/mL
- minimal effective concentration (Aspergillus fumigatus [2]): 0.25 µg/mL
- Ratio (Aspergillus fumigatus [3]): 1
- minimal effective concentration (Aspergillus terreus [4]): 0.12 µg/mL
- minimal effective concentration (Aspergillus terreus [5]): 0.25 µg/mL
- Ratio (Aspergillus terreus [6]): 1
- minimal effective concentration (Aspergillus flavus [7]): 0.12 µg/mL
- minimal effective concentration (Aspergillus flavus [8]): 0.5 µg/mL
- Ratio (Aspergillus flavus [9]): 2
- Activity (Aspergillus fumigatus [10]): Active
- EC5 (Aspergillus fumigatus [11]): 0.04 µg/mL
- EC5 (Aspergillus fumigatus [12]): 0.05 µg/mL
- Ratio (Aspergillus fumigatus [13]): 0.67
- EC5 (Aspergillus terreus [14]): 0.07 µg/mL
- EC5 (Aspergillus terreus [15]): 0.14 µg/mL
- Ratio (Aspergillus terreus [16]): 2.04
- EC5 (Aspergillus flavus [17]): 0.05 µg/mL
- EC5 (Aspergillus flavus [18]): 0.14 µg/mL
- Ratio (Aspergillus flavus [19]): 1.57
- Activity (Aspergillus fumigatus [20]): 25%
- Activity (Aspergillus fumigatus [21]): 29%
- Activity (Aspergillus terreus [22]): 29%
- Activity (Aspergillus terreus [23]): 37%
- Activity (Aspergillus flavus [24]): 17%
- Activity (Aspergillus flavus [25]): 20%
- Activity (Aspergillus fumigatus [26]): inactive
- Activity (Aspergillus fumigatus [27]): inactive
- Activity (Aspergillus terreus [28]): inactive
- Activity (Aspergillus terreus [29]): inactive
- Activity (Aspergillus flavus [30]): inactive
- Activity (Aspergillus flavus [31]): inactive
- Activity (Aspergillus fumigatus [32]): inactive
- Activity (Aspergillus fumigatus [33]): inactive
- Activity (Aspergillus terreus [34]): inactive
- Activity (Aspergillus terreus [35]): inactive
- Activity (Aspergillus flavus [36]): inactive
- Activity (Aspergillus flavus [37]): inactive

Reference: ChEMBL document CHEMBL1153552, “Comparative in vitro pharmacodynamics of caspofungin, micafungin, and anidulafungin against germinated and nongerminated Aspergillus conidia” (2008)
